{"source": "patent US20240238426A1", "about": "“PROTEIN ACYLATION MODULATION BY HETEROBIFUNCTIONAL MOLECULES” (THE SCRIPPS RESEARCH INSTITUTE, priority 2021, published 2024)", "key": {"[1]": {"test_system": "TP53 target genes", "test": "RNA-seq analysis of H1299 wt cells", "type": "cell-based, Human", "conditions": "3 μM AceTAG-1, FIG. 7F"}, "[2]": {"target": "T1, FKBP12^F36V and the bromodomain of p300 (BRD-p300) (Homo sapiens, UniProt P62942+Q09472, F37V)", "T1 construct": "A construct containing residues 2-108 of FKBP12^F36V in pGEX4t-1 vector; the BRD domain of p300 (BRD-p300); purchased) 31372; host or cells: E. coli BL21(DE3) (GST-FKBP12^F36V)", "T1 sequence (P62942 2-108 F37V)": "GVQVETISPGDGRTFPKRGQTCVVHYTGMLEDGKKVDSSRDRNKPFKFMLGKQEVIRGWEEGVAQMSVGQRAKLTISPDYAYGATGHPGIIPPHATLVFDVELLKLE", "T1 sequence (Q09472 1049-1156)": "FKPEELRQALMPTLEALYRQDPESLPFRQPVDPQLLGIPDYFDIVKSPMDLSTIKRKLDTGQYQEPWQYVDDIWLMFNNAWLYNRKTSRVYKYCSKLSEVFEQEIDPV", "test": "GST-FKBP12^F36V/His-P300-BRD AlphaScreen assay, ternary complex formation", "type": "binding", "conditions": "FIG. 3B", "method": "GST-FKBP12^F36V/His-P300-BRD AlphaScreen Assay: GST-FKBP12^F36V and 6xHis-p300-BRD (active motif #31372) were diluted to 250 nM and 500 nM, in assay buffer (50 mM HEPES pH 7.4, 200 mM NaCl, 1 mM TCEP, and 0.1% BSA), […] of protein mixture was added to each well of a 1/2 area 96-well OptiPlate (PerkinElmer). Compounds were then added from DMSO stock to protein mixture ([…]) with 1% DMSO in final mixture. Plates were then shaken orbitally at room temperature for 1 h. Nickel Chelate AlphaLISA Acceptor and Glutathione AlphaLISA Donor beads (PerkinElmer) diluted to 20 ng/ml in assay buffer and […] beads mixture was added to each well. After a 1 h orbital shaking at room temperature. luminescence was measured on the Envision 2104 plate reader (PerkinElmer). Data were plotted and analyzed using GraphPad PRISM v8 and fit with ‘Bell-shaped’ dose response curve."}, "[3]": {"test_system": "T2, FKBP12^F36V-RelA (Homo sapiens, F37V)", "T2 construct": "expressed in transfected cells", "T2 sequence (P62942 2-108 F37V limits assumed)": "as the sequence (P62942 2-108 F37V) above", "T2 sequence (Q09472 2-2414 limits assumed, stated change not applied, further chain)": "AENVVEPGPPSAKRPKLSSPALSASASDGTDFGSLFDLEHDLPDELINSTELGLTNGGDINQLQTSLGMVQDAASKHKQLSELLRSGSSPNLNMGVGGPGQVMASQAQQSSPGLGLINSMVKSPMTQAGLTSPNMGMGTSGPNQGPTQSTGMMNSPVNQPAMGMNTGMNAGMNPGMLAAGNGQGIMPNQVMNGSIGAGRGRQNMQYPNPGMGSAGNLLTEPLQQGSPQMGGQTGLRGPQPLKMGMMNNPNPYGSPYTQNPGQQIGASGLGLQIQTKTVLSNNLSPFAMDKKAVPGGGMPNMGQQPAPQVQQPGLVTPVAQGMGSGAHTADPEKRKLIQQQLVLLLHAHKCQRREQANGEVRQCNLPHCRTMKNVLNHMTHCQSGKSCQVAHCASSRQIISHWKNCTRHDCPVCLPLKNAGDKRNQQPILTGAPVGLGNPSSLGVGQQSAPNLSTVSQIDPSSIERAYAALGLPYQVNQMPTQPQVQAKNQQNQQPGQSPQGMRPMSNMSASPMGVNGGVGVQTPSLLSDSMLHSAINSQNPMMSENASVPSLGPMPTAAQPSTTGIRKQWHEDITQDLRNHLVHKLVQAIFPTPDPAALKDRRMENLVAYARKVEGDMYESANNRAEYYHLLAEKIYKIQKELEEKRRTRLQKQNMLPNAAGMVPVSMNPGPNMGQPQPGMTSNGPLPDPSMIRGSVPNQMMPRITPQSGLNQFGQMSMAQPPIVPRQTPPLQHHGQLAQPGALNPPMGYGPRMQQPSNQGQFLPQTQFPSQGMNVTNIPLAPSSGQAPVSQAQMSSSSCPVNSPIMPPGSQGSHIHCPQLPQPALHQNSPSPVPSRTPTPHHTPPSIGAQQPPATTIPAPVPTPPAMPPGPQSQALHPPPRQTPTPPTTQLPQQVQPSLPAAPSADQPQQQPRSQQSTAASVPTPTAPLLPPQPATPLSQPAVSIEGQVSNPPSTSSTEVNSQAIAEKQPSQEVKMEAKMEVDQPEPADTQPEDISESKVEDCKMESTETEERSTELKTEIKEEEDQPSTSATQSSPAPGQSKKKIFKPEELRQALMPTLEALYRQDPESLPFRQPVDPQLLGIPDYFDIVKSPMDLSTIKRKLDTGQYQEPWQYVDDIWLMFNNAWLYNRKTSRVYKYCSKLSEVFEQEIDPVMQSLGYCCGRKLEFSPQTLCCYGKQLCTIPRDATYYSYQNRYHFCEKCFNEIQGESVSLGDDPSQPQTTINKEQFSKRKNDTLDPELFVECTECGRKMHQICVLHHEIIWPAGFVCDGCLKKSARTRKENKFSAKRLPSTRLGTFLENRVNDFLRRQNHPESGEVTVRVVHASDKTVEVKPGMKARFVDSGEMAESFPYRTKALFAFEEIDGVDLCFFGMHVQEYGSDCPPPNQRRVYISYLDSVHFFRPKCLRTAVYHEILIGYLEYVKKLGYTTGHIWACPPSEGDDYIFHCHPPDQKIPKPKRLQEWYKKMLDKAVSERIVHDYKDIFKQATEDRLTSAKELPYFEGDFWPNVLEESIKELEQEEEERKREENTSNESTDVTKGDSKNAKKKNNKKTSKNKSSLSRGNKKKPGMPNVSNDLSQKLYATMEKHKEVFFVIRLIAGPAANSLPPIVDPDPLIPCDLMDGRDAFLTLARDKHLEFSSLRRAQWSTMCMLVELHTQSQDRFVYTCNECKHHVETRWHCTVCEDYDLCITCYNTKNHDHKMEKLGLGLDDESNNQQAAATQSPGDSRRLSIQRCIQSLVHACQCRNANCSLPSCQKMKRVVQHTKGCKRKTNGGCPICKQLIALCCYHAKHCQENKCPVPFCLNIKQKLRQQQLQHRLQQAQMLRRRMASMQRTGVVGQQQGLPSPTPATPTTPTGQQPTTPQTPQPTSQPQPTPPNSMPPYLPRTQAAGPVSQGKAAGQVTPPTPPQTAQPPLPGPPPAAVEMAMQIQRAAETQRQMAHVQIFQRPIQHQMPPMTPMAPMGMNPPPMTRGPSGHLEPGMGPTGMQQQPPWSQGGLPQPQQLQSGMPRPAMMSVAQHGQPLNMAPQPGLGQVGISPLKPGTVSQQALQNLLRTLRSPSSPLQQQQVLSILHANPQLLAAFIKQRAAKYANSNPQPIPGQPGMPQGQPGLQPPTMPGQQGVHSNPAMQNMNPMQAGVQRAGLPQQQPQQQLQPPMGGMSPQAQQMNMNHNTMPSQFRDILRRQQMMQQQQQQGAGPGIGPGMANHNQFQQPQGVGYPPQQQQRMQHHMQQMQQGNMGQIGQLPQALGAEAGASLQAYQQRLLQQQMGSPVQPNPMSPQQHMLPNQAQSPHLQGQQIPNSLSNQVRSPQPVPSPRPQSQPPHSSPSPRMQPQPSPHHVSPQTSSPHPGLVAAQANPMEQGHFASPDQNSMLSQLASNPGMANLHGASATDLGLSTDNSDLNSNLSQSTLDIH", "test": "Immunoblot analysis of FKBP12^F36V-RelA acetylation in RelA-/- HeLa cells", "type": "cell-based", "method": "Lentivirus Production and Transduction: Lentiviral production was performed using HEK293T cells, which were co-transfected with pMD2.G (Addgene, #12259), psPAX2 (Addgene, #12260), and AceTAG lentiviral plasmids using PEI (Polysciences Inc). Viral particles were collected 72 h after transfection and filtered through a […] membrane. A range of dilutions of the lentivirus in DMEM complete and 10 μg/mL polybrene were added to HeLa, H1299, or HeLa RelA KO cell lines. Transduced cells were selected with 1 μg/mL or 2 μg/mL puromycin.\n(§1) Immunoblotting: Cells were harvested in cold DPBS by scraping and washed with cold DPBS twice. Cell pellets were resuspended in DPBS supplemented with 5 mM sodium butyrate, 20 mM Nicotinamide, and 1X Halt Protease Inhibitor Cocktail and lysed by sonication (15 ms on, 40 ms off, 15% amplitude, 1s total on x 3). Protein concentration was determined using DC Protein Assay (Bio-Rad) and absorbance read using a CLARIOstar plate reader following manufacturer's instructions. Samples with equal protein content were boiled in 4X SDS gel loading buffer for 10 min. Proteins were separated by 10%, 12.5%, or 15% SDS-polyacrylamide gel electrophoresis and transferred to PVDF membranes using Trans-Blot Turbo RTA Mini […] LF PVDF Transfer Kit (Bio-Rad). Membranes were incubated for 1 h at room temperature with blocking buffer, followed by incubating overnight at 4° C. with primary antibodies. After washing in TBST, the secondary antibodies were incubated with the membranes at room temperature for 1 h. The membranes were washed with TBST for three times and visualized on a Bio-Rad ChemiDoc MP Imaging System with Clarity Max Western ECL substrate (Bio-Rad) or SuperSignal West Femto Chemiluminescent substrate proprietary luminol and peroxide solution kit (Thermo Scientific Pierce)."}, "[4]": {"test_system": "p21", "test": "Immunoblot of p21 expression in p53 H1299 cells without the FKBP12^F36V tag", "type": "cell-based, Human", "conditions": "indicated doses, 8 hr, FIG. 7D", "method": "as §1"}, "[5]": {"target": "T3, FKBP12^F36V (Homo sapiens, UniProt P62942, F37V)", "T3 construct": "expressed in transfected cells; host or cells: HEK293T (transient)", "T3 sequence (P62942 2-108 F37V limits assumed)": "as the sequence (P62942 2-108 F37V) above", "test": "AceTAG-1 target engagement: FKBP-p photo-crosslinking probe competition in HEK293T cells", "type": "cell-based", "conditions": "0.5 μM FKBP-p probe, increasing concentrations of AceTAG-1, 30 min, FIG. 3E", "method": "AceTAG-1 Target Engagement: At 50%-70% confluency, HEK293t cells in 6-well plates were transfected with pLEX305-C-dTAG-H3.3. After 24 h, cells were co-treated for 30 min with 0.5 μM FKBP-p probe and increasing concentration of AceTAG-1 in serum-free DMEM media. Cells then underwent UV-photocrosslinking (365 nm) for 20 min at 4° C., harvested in cold DPBS by scraping and centrifugation, cell pellets were washed with cold DPBS two times and aspirated. Cells were then lysed in 400 μL DPBS buffer supplemented with 0.2% SDS (w/v) and 1X Halt protease inhibitor cocktail. Lysate was then normalized to 1.5 mg/mL. […] Proteins (25 μg total protein loaded per gel lane) were resolved using SDS-PAGE (10% acrylamide) and visualized by in-gel fluorescence on Bio-Rad ChemiDoc MP Imaging System. Gel fluorescence and imaging was processed using Image Lab (v 6.0.1) software. […] Chemiluminescence was recorded with Bio-Rad ChemiDoc MP Imaging System and processed using Image Lab (v 6.0.1) software."}}, "data": [{"smiles": "CC[C@H](C(=O)N1CCCC[C@H]1C(=O)O[C@H](CCc1ccc(OC)c(OC)c1)c1cccc(OCC(=O)NCCOCCOCCC(=O)NCCOc2ccc(CCc3nc4cc(-c5c(C)noc5C)ccc4n3CCN3CCOCC3)cc2)c1)c1cc(OC)c(OC)c(OC)c1", "note": "[AceTAG-1, (R)-3-(3,4-dimethoxyphenyl)-1-(3-((15-(4-(2-(5-(3,5-dimethylisoxazol-4-yl)-1-(2-morpholinoethyl)-1H-benzo[d]imidazol-2-yl)ethyl)phenoxy)-2,12-dioxo-6,9-dioxa-3,13-diazapentadecyl)oxy)phenyl)propyl (S)-1-((S)-2-(3,4,5-trimethoxyphenyl)butanoyl)piperidine-2-carboxylate]", "values": [{"measurement": "changes of TP53 target genes in H1299 wt cells", "setting": "[1]", "result": "minimal changes"}, {"measurement": "concentration of maximum complex formation", "setting": "[2]; FKBP12^F36V and BRD-p300, AlphaScreen", "result": "~1", "unit": "µM"}, {"measurement": "AceTAG-mediated ternary complex formation (AlphaScreen curve)", "setting": "[2]; bell-shaped dose response fit", "result": "increased potence relative to other analogues"}, {"measurement": "RelA acetylation at higher AceTAG-1 concentrations", "setting": "[3]; FIG. 6A", "result": "apparent acetylation autoinhibition"}, {"measurement": "RelA acetylation at neighboring K314/315", "setting": "[3]; FIG. 9D", "result": "minimal effects"}, {"measurement": "RelA acetylation at K310", "setting": "[3]; indicated doses, 2 hr, FIG. 6A", "result": "dose-dependent acetylation"}, {"measurement": "p21 induction in H1299 cells expressing p53 without the FKBP12^F36V tag", "setting": "[4]", "result": "not observed"}, {"measurement": "competition of FKBP-p probe binding to FKBP12^F36V", "setting": "[5]", "result": "efficiently competed"}]}]}
